# Earlier results, collected in patent US9084801B2, “Use of an omega-3 lipid-based emulsion following ischemic injury to provide protection and recovery in human organs” (THE TRUSTEES OF COLUMBIA UNIVERSITY IN THE CITY OF NEW YORK, priority 2005, dated 2015).
# What was measured:
# [1] = system: adult Sprague-Dawley rats, kainate-induced seizures; settings: intravenous, given before and/or after neurologic insult
# [2] = system: adult Sprague-Dawley rats, global ischemia via four vessel occlusion; settings: intravenous, given before and/or after neurologic insult
smiles,measurement,setting,value
CC/C=C\C/C=C\C/C=C\CCCCCCCC(=O)O [α-linolenic acid],protection in kainate-induced seizures,[1],protective
same,protection in global ischemia,[2],protective
